Source: patent US20220184020A1, “Polyphenols as Modulators of Platelet Function” (Northeastern University, priority 2019, published 2022)

Legend:
[1] = rat models of ischemia/reperfusion injury; cited from earlier work
[2] = system: platelets; experiment: Integrin αIIbβ3 activation (fibrinogen binding); format: cell-based, human; conditions: in response to U46619; RA pre-treatment 1 hour
Protocol: To validate the predictive power of the developed framework, direct experimental evidence of the predicted mechanistic role of Rosmarinic acid (RA) in VD was sought. […] Therefore, whether RA influenced platelet activation in vitro was evaluated. As platelets can be stimulated through different activation pathways, RA effects can, in principle, occur in any of them. To test these different possibilities, platelets were pretreated with RA and then activated with: 1) glycoprotein VI by collagen or collagen-related peptide (Collagen/CRPXL); 2) protease-activated receptors-1,4 by thrombin receptor activator peptide-6 (TRAP-6); 3) prostanoid thromboxane receptor by the thromboxane A2 analogue (U46619); and 4) P2Y1/12 receptor stimulation by adenosine diphosphate (ADP). When the network distance between each stimulant receptor and the RA-VD-platelet module (FIG. 11A) was compared, it was observed that the receptors for Collagen/CRPXL, TRAP-6, and U46619 are closer than the random expectation, while the receptor for ADP is more distant (FIG. 11B). It is expected that platelets would be most affected by RA when treated with stimulants whose receptors are most proximal to the RA-VD-platelet module, i.e. Collagen/CRPXL, TRAP-6, and U46619. […] Percent-positive cells were determined by gating on fluorescence intensity compared to unstimulated samples.

[3] = system: platelets; experiment: Platelet dense granule release (Chrono-Lume); format: cell-based, human; conditions: induced by CRPXL, TRAP-6 and U46619; RA pre-treatment 1 hour
Protocol: To validate the predictive power of the developed framework, direct experimental evidence of the predicted mechanistic role of Rosmarinic acid (RA) in VD was sought. […] Therefore, whether RA influenced platelet activation in vitro was evaluated. As platelets can be stimulated through different activation pathways, RA effects can, in principle, occur in any of them. To test these different possibilities, platelets were pretreated with RA and then activated with: 1) glycoprotein VI by collagen or collagen-related peptide (Collagen/CRPXL); 2) protease-activated receptors-1,4 by thrombin receptor activator peptide-6 (TRAP-6); 3) prostanoid thromboxane receptor by the thromboxane A2 analogue (U46619); and 4) P2Y1/12 receptor stimulation by adenosine diphosphate (ADP). […] Platelet aggregation was measured by turbidimetric aggregometry. […] Platelet aggregation was monitored for 6 minutes at 37° C. with a stir speed of 1000 rpm and the maximum extend of aggregation recorded using AGGRO/LINK®8 software. In some cases, dense granule release was simultaneously recorded by supplementing samples with Chrono-Lume® (Chrono-Log®, 395) according to the manufacturer's instructions.

[4] = system: A549; conditions: A549 after treatment with RA; versus all other genes; cited from earlier work

O=C(/C=C/c1ccc(O)c(O)c1)O[C@H](Cc1ccc(O)c(O)c1)C(=O)O [rosmarinic acid]
cardiac function [1]: restore cardiac function
integrin αIIbβ3 activation [2]: dampened
dense granule secretion [3]: impairs
perturbation scores for genes directly regulated by NFE2L2 [4]: higher perturbation scores
